This is an account of results in patent US8314132B2, “5-aryl-4-(5-substituted 2,4-dihydroxyphenyl)-1,2,3-thiadiazoles as inhibitors of Hsp90 chaperone and the intermediates for production thereof” (Biotechnologijos Institutas, priority 2008, dated 2012).

In test [1] the test system is U2OS (osteosarcoma) cells. As to the kind of experiment: Growth inhibition (GI50), XTT cell viability assay, U2OS. Type of test: cell-based. The settings on record: Homo sapiens, 72 h, 3 days, read-out: growth inhibition constants (GI50), U2OS. As for the experimental part: (§1) The growth inhibition constants of the compounds were determined in two cancer cell lines: U2OS (osteosarcoma) and HeLa (cervical carcinoma). Cells were maintained in DMEM (HeLa) and a 50-50% mixture of DMEM and F-12 media (U2OS) supplemented with 10% fetal bovine serum. Stock solutions (20 mM) of the tested compounds were prepared in 100% dimethyl-sulfoxide (DMSO). Cells, cultured in 24-well plates, were subjected to a range of concentrations of the compounds ([…]) at 0.25% DMSO. After 3 days, cell viability was assayed using XTT (sodium salt of 2,3-bis[2-Methoxy-4-nitro-5-sulfophenyl]-2H-tetrazolium-5-carboxyanilide inner salt) and PMS (phenazine methosulfate) reagents (Scudiero et al. 1988. Cancer Res. 48, 4827-4833). Stock solutions of XTT (1 mg/ml) and PMS (1.53 mg/ml) were prepared in Hank's buffered saline (HBS). Culture medium in each well was replaced by 100 μl of OptiMEM media (Life technologies) containing 35 μg/ml XTT and 0.27 μg/ml PMS. Cells were returned to the incubator for 15-20 min. Quantity of viable cells in each well was evaluated spectrophotometrically measuring the absorbance of XTT formazan at 470 nm. Each experiment was run in duplicate.
Background: Formazan colour is commonly taken as a measure of viable cells.

The subject of test [2] is HeLa (cervical carcinoma) cells. The test can be described thus: Growth inhibition (GI50), XTT cell viability assay, HeLa. Type of test: cell-based. Particulars: Homo sapiens, 72 h, 3 days, read-out: GI50 constants, HeLa. The procedure: as §1

Regarding `COc1ccc(-c2snnc2-c2cc(Cl)c(O)cc2O)cc1OC` [compound 3d, 4-(5-chloro-2,4-dihydroxyphenyl)-5-(3,4-dimethoxyphenyl)-1,2,3-thiadiazole], the concentration for 50% growth inhibition (GI50) in test [1] turned out to be 11.5 ± 0.1 µM; in test [2], 3.6 ± 0.3 µM.
In the case of `CCOc1ccc(-c2snnc2-c2cc(CC)c(O)cc2O)cc1` [compound 3e, 4-(5-ethyl-2,4-dihydroxyphenyl)-5-(4-ethoxyphenyl)-1,2,3-thiadiazole], the GI50 in test [1] is 0.65 ± 0.08 µM; in test [2], 0.7 ± 0.04 µM.
On the same counts, the results for `CCOc1ccc(-c2snnc2-c2cc(Cl)c(O)cc2O)cc1` [compound 3b, 4-(5-chloro-2,4-dihydroxyphenyl)-5-(4-ethoxyphenyl)-1,2,3-thiadiazole] are 15.1 ± 3.4 µM and 4.2 ± 0.4 µM.
As for `Cc1ccc(-c2snnc2-c2cc(Cl)c(O)cc2O)cc1` [compound 3c, 4-(5-chloro-2,4-dihydroxyphenyl)-5-(4-methylphenyl)-1,2,3-thiadiazole], the values for the concentration for 50% growth inhibition (GI50) in test [1] and in test [2] were 7.1 ± 0.1 µM and 3.3 ± 0.1 µM, respectively.
As for `COc1ccc(-c2snnc2-c2cc(Cl)c(O)cc2O)cc1` [compound 3a, 4-(5-chloro-2,4-dihydroxyphenyl)-5-(4-methoxyphenyl)-1,2,3-thiadiazole], the figures for the GI50 in test [1] and in test [2] were 8.4 ± 1.2 µM and 2.5 ± 0.1 µM, respectively.

As usually defined, the GI50 is the concentration at which growth is held to half of that of the control.
